In patent US20140221340A1 (KYOWA HAKKO KIRIN CO., LTD., priority 2011, published 2014):

Target: T1, human CCR10 (Homo sapiens, UniProt P46092)
T1 construct: expressed in transfected cells; host or cells: KJMGER8 cell (cell line derived from Namalwa cell); expression induced with 10 nmol/L β-estradiol
T1 sequence (P46092 1-362): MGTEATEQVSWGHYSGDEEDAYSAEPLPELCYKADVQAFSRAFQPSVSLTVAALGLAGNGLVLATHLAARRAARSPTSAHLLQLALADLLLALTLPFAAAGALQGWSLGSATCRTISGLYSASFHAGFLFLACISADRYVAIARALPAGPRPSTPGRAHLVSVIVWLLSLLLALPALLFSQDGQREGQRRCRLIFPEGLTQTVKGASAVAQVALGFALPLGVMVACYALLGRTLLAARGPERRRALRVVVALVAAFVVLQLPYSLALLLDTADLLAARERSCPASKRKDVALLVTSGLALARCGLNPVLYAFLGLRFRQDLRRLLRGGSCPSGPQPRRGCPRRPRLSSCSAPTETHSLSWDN
Assay: Calcium assay of human CCR10 (inhibition of CTACK-induced increase in intracellular calcium ion concentration in hCCR10G16 cells)
Assay type: cell-based
Conditions: test compound 100 nmol/L; human recombinant CTACK; hCCR10G16 cells (KJMGER8/Namalwa-derived, Gα16 co-expressed); FLIPR or FDSS; read-out: Inhibitory rate (%) for an increase in calcium ion concentration
Procedure: A CCR10-inducible expression plasmid was produced according to a known method (“Analytical Biochemistry”, 2006, vol. 400, page 163). A DNA encoding human CCR10 was obtained by PCR. Using human chromosomal DNA (100 ng; manufactured by Clontech Laboratories, Inc.) as a template, a synthetic DNA having the sequences shown by SEQ ID NOs: 1 and 2 as a human CCR10 cDNA specific primer, and Pyrobest DNA Polymerase (manufactured by TAKARA SHUZO CO. LTD.) as an enzyme, a DNA encoding human CCR10 was obtained by PCR. As a buffer solution for PCR, the buffer solution attached to the enzyme was diluted 10-fold with deionized water and used. Using Thermal Cycler DNA Engine (manufactured by MJ Research), PCR was performed by 35 cycles of reactions composed of an incubation at 90° C. for 2 min, at 94° C. for 30 seconds, at an anneal temperature of 58° C. for 30 seconds, and at 72° C. for 1 min.
The amplified PCR fragment was cleaved with HindIII and NotI, then a human CCR10 DNA fragment was recovered by an agarose gel electrophoresis method. The fragment was incorporated in between the corresponding restriction enzyme sites (HindIII-NotI) of an inducible expression vector, whereby a human CCR10-inducible expression plasmid were prepared.
Using a primer specific to the sequence of the plasmid (synthetic DNA having the sequences shown by SEQ ID NOs: 3 and 4), the sequence of human CCR10 DNA region was determined. For the determination of the base sequence, DNA sequencer 377 (manufactured by PerkinElmer) and a reaction kit (ABI Prism (registered trade mark) BigDye (registered trade mark) Terminator Cycle Sequencing Ready Reaction kit: manufactured by Applied Biosystems) were used. The sequence of human CCR10 DNA matched with the sequence (NM_016602) registered in GenBank.
Cells for the detection of the signal from human CCR10 by a calcium assay were prepared. Human CCR10-inducible expressing cells whose host cell is KJMGER8 cell (cell line derived from Namalwa cell) were prepared according to a known method (“Analy Biochem”, 2006, vol. 400, page 163). Human CCR10-inducible expression plasmid produced above and Gα16 expression plasmid were co-transfected into KJMGER8 cell by an electroporation method (“Cytotechnology”, 1990, vol. 3, page 133), whereby a signal from human CCR10 could be detected by a calcium assay (hereinafter to be referred to as hCCR10G16 cell). Gα16 expression plasmid was produced by incorporating human Gα16 DNA into expression vector pAMoh (WO03/087366). Induced expression of human CCR10 was performed by cultivating hCCR10G16 cells in the presence of 10 nmol/L β-estradiol (manufactured by Sigma Ltd.) for 24 hr.
Cells expressing human CCR10 induced by the above-mentioned method were suspended in RPMI1640 medium and adjusted to cell density of 1.25×10^6 cells/mL. This mixture was dispensed to a 384 well clear bottom plate (manufactured by Corning Incorporated) at 20 μL/well, and these were incubated at 37° C. for several dozen minutes. A loading buffer prepared according to the protocol attached to FLIPR Calcium 3 assay kit (manufactured by Molecular Device) was dispensed to this plate at 20 μL/well, and the plate was incubated at 37° C. for 60 min. A 33 μmol/L DMSO solution of the test compound was diluted 37-fold with RPMI1640 medium and the resulting solution was added at 5 μL/well, and the mixture was incubated at 37° C. for 30 min. 300 nmol/L human recombinant CTACK (manufactured by R and D Systems) diluted with RPMI1640 medium containing 1 w/v % bovine serum albumin was added at 5 μL/well. Change of the intracellular calcium ion concentration for about 5 min after the addition was measured by FLIPR (manufactured by Molecular Device) or FDSS (manufactured by Hamamatsu Photonics K.K.). The difference between the maximum fluorescence intensity and the minimum fluorescence intensity for 5 min was calculated, and taken as the measurement value (maximum fluorescence intensity−minimum fluorescence intensity). […]

Row | SMILES | inhibition at 0.1 µM [%]
1 | CCNS(=O)(=O)c1cnn2c(Nc3ccc(F)cc3C)c(C(=O)N3CCC(c4ccccc4)CC3)cnc12 [a-2, N-Ethyl-7-(4-fluoro-2-methylphenylamino)-6-(4-phenylpiperidine-1-carbonyl)pyrazolo[1,5-a]pyrimidine-3-sulfonamide] | > 100
2 | CCNS(=O)(=O)c1cnn2c(Nc3ccc(F)cc3C)c(C(=O)N3CCC(c4ccc(F)cc4)CC3)cnc12 [a-3, N-Ethyl-7-(4-fluoro-2-methylphenylamino)-6-[4-(4-fluorophenyl)piperidine-1-carbonyl]pyrazolo[1,5-a]pyrimidine-3-sulfonamide] | > 100
3 | Cc1cc(F)ccc1Nc1c(C(=O)N2CCC(c3ccc(F)cc3)CC2)cnc2c(S(=O)(=O)NCC(F)(F)F)cnn12 [a-4, 7-(4-Fluoro-2-methylphenylamino)-6-[4-(4-fluorophenyl)piperidine-1-carbonyl]-N-(2,2,2-trifluoroethyl)pyrazolo[1,5-a]pyrimidine-3-sulfonamide] | > 100
4 | Cc1cc(F)ccc1Nc1c(C(=O)N2CCC(c3ccc(F)cc3)CC2)cnc2c(S(=O)(=O)NC3CC3)cnn12 [a-5, N-Cyclopropyl-7-(4-fluoro-2-methylphenylamino)-6-[4-(4-fluorophenyl)piperidine-1-carbonyl]pyrazolo[1,5-a]pyrimidine-3-sulfonamide] | > 100
5 | CCNC(=O)NS(=O)(=O)c1cnn2c(Nc3ccccc3Cl)c(C(=O)N3CCC(c4ccccc4)CC3)cnc12 [a-7, 7-(2-Chlorophenylamino)-N-(ethylcarbamoyl)-6-(4-phenylpiperidine-1-carbonyl)pyrazolo[1,5-a]pyrimidine-3-sulfonamide] | 92.4
6 | COC(=O)NS(=O)(=O)c1cnn2c(Nc3ccccc3Cl)c(C(=O)N3CCC(c4ccccc4)CC3)cnc12 [a-8, Methyl 7-(2-chlorophenylamino)-6-(4-phenylpiperidine-1-carbonyl)pyrazolo[1,5-a]pyrimidin-3-ylsulfonylcarbamate] | 99.6
7 | CCNS(=O)(=O)c1cnn2c(Nc3cc(C)ccc3Cl)c(C(=O)N3CCC(c4ccc(F)cc4)CC3)cnc12 [a-15, N-Ethyl-7-(2-chloro-5-methylphenylamino)-6-[4-(4-fluorophenyl)piperidine-1-carbonyl]pyrazolo[1,5-a]pyrimidine-3-sulfonamide] | 87.8
8 | CCNS(=O)(=O)c1cnn2c(Nc3ccc(Cl)cc3C)c(C(=O)N3CCC(c4ccc(F)cc4)CC3)cnc12 [a-16, N-Ethyl-7-(4-chloro-2-methylphenylamino)-6-[4-(4-fluorophenyl)piperidine-1-carbonyl]pyrazolo[1,5-a]pyrimidine-3-sulfonamide] | > 100
9 | CC(=O)NS(=O)(=O)c1cnn2c(Nc3ccc(F)cc3C)c(C(=O)N3CCC(c4ccccc4)CC3)cnc12 [a-17, N-[7-(4-Fluoro-2-methylphenylamino)-6-(4-phenylpiperidine-1-carbonyl)pyrazolo[1,5-a]pyrimidin-3-ylsulfonyl]acetamide] | > 100

Results, then the compound that gave them:

Row | inhibition at 0.1 µM [%] | SMILES
10 | 93.4 | Cc1cc(F)ccc1Nc1c(C(=O)N2CCC(c3ccccc3)CC2)cnc2c(S(=O)(=O)NC(=O)C3CC3)cnn12 [a-1, N-[7-(4-Fluoro-2-methylphenylamino)-6-(4-phenylpiperidine-1-carbonyl)pyrazolo[1,5-a]pyrimidin-3-ylsulfonyl]cyclopropanecarboxamide]
11 | 98.9 | O=C(NS(=O)(=O)c1cnn2c(Nc3ccccc3Cl)c(C(=O)N3CCC(c4ccccc4)CC3)cnc12)C1CC1 [a-6, N-[7-(2-Chlorophenylamino)-6-(4-phenylpiperidine-1-carbonyl)pyrazolo[1,5-a]pyrimidin-3-ylsulfonyl]cyclopropanecarboxamide]
12 | 80.6 | O=C(NS(=O)(=O)c1cnn2c(Nc3ccccc3Cl)c(C(=O)N3CCC(c4ccc(F)cc4)CC3)cnc12)C1CC1 [a-9, N-{7-(2-Chlorophenylamino)-6-[4-(4-fluorophenyl)piperidine-1-carbonyl]pyrazolo[1,5-a]pyrimidin-3-ylsulfonyl}cyclopropanecarboxamide]
13 | > 100 | CCNC(=O)NS(=O)(=O)c1cnn2c(Nc3ccccc3Cl)c(C(=O)N3CCC(c4ccc(F)cc4)CC3)cnc12 [a-10, 7-(2-Chlorophenylamino)-N-(ethylcarbamoyl)-6-[4-(4-fluorophenyl)piperidine-1-carbonyl]pyrazolo[1,5-a]pyrimidine-3-sulfonamide]
14 | 28.9 | COCCNS(=O)(=O)c1cnn2c(Nc3ccccc3Cl)c(C(=O)N3CCC(c4ccc(F)cc4)CC3)cnc12 [a-11, 7-(2-Chlorophenylamino)-6-[4-(4-fluorophenyl)piperidine-1-carbonyl]-N-(2-methoxyethyl)pyrazolo[1,5-a]pyrimidine-3-sulfonamide]
15 | > 100 | Cc1ccc(Cl)c(Nc2c(C(=O)N3CCC(c4ccc(F)cc4)CC3)cnc3c(S(=O)(=O)NC(=O)C4CC4)cnn23)c1 [a-12, N-{7-(2-Chloro-5-methylphenylamino)-6-[4-(4-fluorophenyl)piperidine-1-carbonyl]pyrazolo[1,5-a]pyrimidin-3-ylsulfonyl}cyclopropanecarboxamide]
16 | > 100 | CCC(=O)NS(=O)(=O)c1cnn2c(Nc3cc(C)ccc3Cl)c(C(=O)N3CCC(c4ccc(F)cc4)CC3)cnc12 [a-13, N-{7-(2-Chloro-5-methylphenylamino)-6-[4-(4-fluorophenyl)piperidine-1-carbonyl]pyrazolo[1,5-a]pyrimidin-3-ylsulfonyl}ethanecarboxamide]
17 | > 100 | CCNC(=O)NS(=O)(=O)c1cnn2c(Nc3cc(C)ccc3Cl)c(C(=O)N3CCC(c4ccc(F)cc4)CC3)cnc12 [a-14, 7-(2-Chloro-5-methylphenylamino)-N-(ethylcarbamoyl)-6-[4-(4-fluorophenyl)piperidine-1-carbonyl]pyrazolo[1,5-a]pyrimidine-3-sulfonamide]
18 | 98.3 | CCC(=O)NS(=O)(=O)c1cnn2c(Nc3ccc(C)cc3Cl)c(C(=O)N3CCC(c4ccc(F)cc4)CC3)cnc12 [a-18, N-{7-(2-Chloro-4-methylphenylamino)-6-[4-(4-fluorophenyl)piperidine-1-carbonyl]pyrazolo[1,5-a]pyrimidin-3-ylsulfonyl}propionamide]
19 | 97 | CCC(=O)NS(=O)(=O)c1cnn2c(Nc3ccc(Cl)cc3Cl)c(C(=O)N3CCC(c4ccc(F)cc4)CC3)cnc12 [a-19, N-{7-(2,4-Dichlorophenylamino)-6-[4-(4-fluorophenyl)piperidine-1-carbonyl]pyrazolo[1,5-a]pyrimidin-3-ylsulfonyl}propionamide]
20 | 90.7 | CCNC(=O)NS(=O)(=O)c1cnn2c(Nc3ccc(Cl)cc3Cl)c(C(=O)N3CCC(c4ccc(F)cc4)CC3)cnc12 [a-20, 7-(2,4-Dichlorophenylamino)-N-(ethylcarbamoyl)-6-[4-(4-fluorophenyl)piperidine-1-carbonyl]pyrazolo[1,5-a]pyrimidine-3-sulfonamide]
